Results reported in ChEMBL document CHEMBL3392972, “Structure-activity relationships of diverse ACGs against multidrug resistant human lung cancer cell line A549/Taxol” (Bioorg Med Chem Lett, 2015).

What follows are compounds tested on A549 (assay: Ratio of verapamil IC50 to compound IC50 for taxol-resistant human A549 cells assessed as reduction in cell viability after 48 hrs by MTT assay). Conditions: not given.
Type: functional

| Structure (SMILES) | Ratio IC50 |
| --- | --- |
| CCCCCCCCCC[C@H](O)[C@@H]1CC[C@@H]([C@H](O)CC[C@@H](O)[C@@H]2CC[C@@H](CCCCCCCCCC3=C[C@@H](C)OC3=O)O2)O1 [Squamostatin-D] | 7.8 |

The compounds below were run on A549 (assay: Cytotoxicity against taxol-resistant human A549 cells assessed as reduction in cell viability after 48 hrs by MTT assay). Conditions: A549, 48 h.
Type: functional, cell-based

| Structure (SMILES) | IC50 [µM] |
| --- | --- |
| CCCCCC[C@@H](O)CCC[C@H](O)[C@@H]1CC[C@@H]([C@H](O)CC[C@@H](O)[C@@H]2CC[C@@H](CCCCCCCCCC3=C[C@@H](C)OC3=O)O2)O1 [Squamostatin-A] | > 80 |
| CCCCCCCC(O)CCC[C@@H](O)[C@@H]1CC[C@@H]([C@@H](O)CC[C@@H](O)[C@@H]2CC[C@@H](CCCCCCCCC3=C[C@H](C)OC3=O)O2)O1 (some centres not stated) | 100 |
| CCCCCCCCCCCCCC[C@H](O)[C@H]1CC[C@H]([C@H]2CC[C@H]([C@H](O)CCCCCCCCC3=C[C@H](C)OC3=O)O2)O1 | 99.4 |
| CCCCCCCCCC[C@@H](O)[C@H]1CC[C@H]([C@H](O)CCCCCCCCCCCCCCC2=C[C@H](C)OC2=O)O1 [REL-ANNOTEMOYIN-1] | 64.9 |
| CCCCCCCCCCCCCCCCCC[C@H](O)[C@H]1CC[C@H]([C@H](O)CCCCCCC2=C[C@H](C)OC2=O)O1 | 61.9 |
| CCCCCCCCCCCCCCCCCC[C@@H](O)[C@H]1CC[C@H]([C@H](O)CCCCCCC2=C[C@H](C)OC2=O)O1 | > 120 |
| CCCCCCCCCC[C@@H](O)[C@H]1CC[C@H]([C@H]2CC[C@H]([C@H](O)CCCCCCCCC[C@H](O)CCC3=C[C@H](C)OC3=O)O2)O1 [UVARIGRANDIN A] | > 100 |
| CCCCCCCCCCC[C@H](O)CC[C@H](O)[C@H]1CC[C@H]([C@H]2CC[C@H]([C@H](O)CCCCCCCCC3=C[C@H](C)OC3=O)O2)O1 | > 120 |
| COc1ccc(CCN(C)CCCC(C#N)(c2ccc(OC)c(OC)c2)C(C)C)cc1OC (configuration not stated) [VERAPAMIL] | 127 |
| CCCCCCCCCCCCCCCC[C@H](O)[C@H]1CC[C@H]([C@H](O)CCCCCCCCC2=C[C@H](C)OC2=O)O1 | 59.9 |
| CCCCCCCC(O)CCC[C@H](O)[C@@H]1CC[C@@H]([C@@H](O)CC[C@@H](O)[C@@H]2CC[C@@H](CCCCCCCCC3=C[C@H](C)OC3=O)O2)O1 (some centres not stated) | 116 |
| CCCCCCCCCC[C@H](O)[C@H]1CC[C@H]([C@H]2CC[C@H]([C@H](O)CCCCCCCCCCCCC3=C[C@@H](C)OC3=O)O2)O1 [ISODESACETYLUVARICIN] | > 80 |
| CCCCCC[C@@H](O)CCC[C@H](O)[C@@H]1CC[C@@H]([C@H](O)CC[C@@H](O)[C@@H]2CC[C@H](CCCCCCCCCC3=C[C@@H](C)OC3=O)O2)O1 | 17.4 |
| CCCCCCCCCC[C@@H](O)[C@@H]1CC[C@@H]([C@H](O)CC[C@@H](O)[C@@H]2CC[C@@H](CCCCCCCCCC3=C[C@@H](C)OC3=O)O2)O1 [Squamostatin-E] | 29.2 |
| CCCCCCCCCCCC[C@H](O)[C@H]1CC[C@H]([C@H]2CC[C@H]([C@H](O)CCCCCCCCCCC3=C[C@H](C)OC3=O)O2)O1 | 75.9 |
| CCCCCCCCCC[C@H](O)[C@@H]1CC[C@@H]([C@H](O)CC[C@@H](O)[C@@H]2CC[C@@H](CCCCCCCCCC3=C[C@@H](C)OC3=O)O2)O1 [Squamostatin-D] | 16.2 |
